# Data: patent US20190314198A1, “Topical Ocular Delivery Methods and Devices for Use in the Same” (Kedalion Therapeutics, Inc., priority 2018, published 2019)
# Key:
# [1] = tested on: patients diagnosed with primary open angle glaucoma; assay: Trial 2: intraocular pressure reduction (Goldmann applanation tonometry), AcuStream versus standard eye dropper; format: in vivo, human
# Protocol: Trial 2 compared the efficacy (dose volume equivalence) of 0.005% w/v latanoprost for intraocular pressure reduction when delivered via AcuStream™ (pre-trial calibration volume=9.2 μl) versus the standard eye dropper for topical drug delivery (approximate volume=30 μl).
# Patients included in Trial 2 have previously been diagnosed with primary open angle glaucoma on the basis of intraocular pressure and visual field testing, fundus examination or optical coherence tomography (OCT) data and are currently on prostaglandin analog medical therapy. Patients with corneal abnormalities that would interfere with accurate IOP measurements with applanation tonometry, use of an oral or topical ophthalmic steroids within the past 14 days from screening date, any active ocular surface or anterior segment disease, or progressive field loss during the past year were excluded from the study. Thirteen men and five women participated in the trial. […]
# After performing slit lamp examinations on each patient to verify eligibility and obtaining informed consent, intraocular pressure (IOP) was measured by a sole experienced examiner who was blind to the randomized conditions. […]
# Latanoprost solution was administered by a sole ophthalmologist to both eyes of each patient, based on the pre-determined randomized condition.
# eye of subjects = assay: Presbyopia: pupil diameter after self-administered pilocarpine micro-dose; format: in vivo, human
# Protocol: A 10 μl micro-dose of a 1% pilocarpine solution was self-administered using an electromagnetic actuated fluid delivery device, e.g., as described above, by three subjects to their own eye. The age range of the subjects was 52 years to 68 years, and all subjects were male. The pilocarpine micro-dose was self-administered by the subjects.
# Baseline, pre-dose values of pupil diameter and near visual acuity in both eyes prior to dosing was measured for all subjects, and then following the baseline measurements, the subjects were dosed in only one eye (the eye with the poorer visual acuity) with the micro-dose pilocarpine solution. Approximately 45 to 60 minutes after dosing, pupil diameter and near visual acuity were again tested. Near visual acuity was measured using a Snellen card at a distance of 40 cm. A tabulation of results is given below in Table A.
SMILES,"difference in IOP reduction between AcuStream and standard dropper groups ([1]; Wilcoxon Ranked Sum test, p=0.3447)","post-instillation IOP of a single patient outlier (OD) ([1]; control group (standard eye dropper), baseline IOP 30 mm Hg) [mm Hg]","mean reduction in pupil diameter (eye of subjects; dosed eye, 10 μl micro-dose of 1% solution, all 3 subjects) [mm]",miotic effect in the non-dosed eye (eye of subjects; non-dosed contralateral eye)
CC(C)OC(=O)CCC/C=C\C[C@@H]1[C@@H](CC[C@@H](O)CCc2ccccc2)[C@H](O)C[C@@H]1O [latanoprost],no statistically significant differences,17,,
CC[C@@H]1C(=O)OC[C@@H]1Cc1cncn1C [pilocarpine],,,0.70,no miotic effect
